In brackets after ≈: the same amount, converted by molar mass.
Experiments:
Assay type in all cases: physicochemical
[1] = Hygroscopicity test by microbalance method; conditions: 25° C.
Experimental: (Hygroscopicity Test by Microbalance Method)
The higroscopicities of the crystals obtained in Examples 1d and 2d were evaluated by microbalance method. An apparatus and conditions employed were as follows.
Apparatus: Integrated microbalance system MB 300W (VTI Co.)
Relative humidity step: 5 to 95 by 5
Equilibrium Criteria: 0.0050 wt % (5 minutes)
Maximum equilibrium time: 120 minutes
The results of measuring the higroscopicities of the crystals obtained in Examples 1d and 2d by microbalance method are shown in FIGS. 13 and 14, respectively. As is seen from the results shown in these figures, within the range of 5-95% of relative humidity, the polymorph (A) gave a weight change of 1% and the polymorph (B) gave that of 1.5%.

[2] = Crystal transition between polymorphs in heated suspension; conditions: 60° C., 3 hours, listed as polymorph (A)
Experimental: These suspensions were filtered to collect 4-(3-chloro-4-(cyclopropylaminocarbonyl)aminophenoxy)-7-methoxy-6-quinolinecarboxamide (184 to 266 mg).
These suspensions were filtered to collect 4-(3-chloro-4-(cyclopropylaminocarbonyl)aminophenoxy)-7-methoxy-6-quinolinecarboxamide (141 to 256 mg).

[3] = Solid stability test (1 month storage; appearance, water content, HPLC purity and residual ratio, powder X-ray diffraction); conditions: for impurity / remaining percent: HPLC; for water content: Karl Fischer method
Experimental: (Solid Stability Test) The solid stabilities of the crystal obtained in Examples 1d and 2d were evaluated. […] The water content measurement and the powder X-ray diffraction measurement were carried out by the same method as described in the hygroscopicity test by the dessiccator method. Further, the purity test and the residual ratio (percent) measurement by HPLC were carried out by the same method as described above, except for the condition that the column temperature was 35° C. In this connection, the residual ratio (percent) (measurement by HPLC) was defined as stated bellow by using the crystal stored under the condition C as the standard and its solution as the standard solution. Remaining percent (%)=[(Peak area of the sample solution)×(Weighed amount of the standard: in terms of a dehydrate (mg))]×100/[(Peak area of the standard solution)×(Weighed amount of the sample: in terms of a dehydrate (mg))] [table]

[4] = Solubility test (pH 3, Britton Robinson buffer); conditions: for pH of the filtrate: solubility test
Experimental: (Solubility Test) The solubilities (pH 3) of the crystals obtained in Examples 1d and 2d were evaluated by the following method. About 3 mg of the crystals obtained in Examples 1d and 2d were weighed and each of them was put in a 10 mL screw-capped transparent test tube. 5 mL of a buffer solution (Britton Robinson buffer, pH 3.091, ionic strength I=0.3) was added to each of the test tubes to prepare the test solutions. The test tubes were wrapped with aluminum foil to shield from light, and shaken by a shaker (MS-1 Iuchi Seieido) in the following conditions. Temperature: 25-26° C. (a temperature in a laboratory) Shaking frequency: 150 times/minute Shaking time: 3 hours and 5 hours Respective sample solutions after shaking were filtered ([…], Sample LCR13-LG, Millipore Co.), and each 1 mL of the initial filtrate was discarded. Each of accurately pipetted 1 mL of the filtrates was put in a 10 mL test tube, to which accurately pipetted 1 mL of a mixed solution of water/acetonitrile (1:1 (v/v)) was added to prepare a solution for the HPLC analysis. The HPLC conditions were as follows. A standard solution for the HPLC analysis were prepared as follows. About 10 mg of the crystals obtained in Example 2d was accurately weighed, to which a mixed solution of water/acetonitrile/ammonium acetate (100:100:0.1, v/v/w) was added to give accurate 100 mL to prepare a stock standard solution. Accurately pipetted 5 mL of the stock control solution was added with a mixed solution of water/acetonitrile/ammonium acetate (100:100:0.1, v/v/w) to give accurate 25 mL to prepare the standard solution for the HPLC analysis. Regarding a blank solution, a mixed solution of water/acetonitrile/ammonium acetate (100:100:0.1, v/v/w) was used. The standard solution and respective filtrates were analyzed by HPLC to measure concentrations (mg/mL) of 4-(3-chloro-4-(cyclopropylaminocarbonyl)aminophenoxy)-7-methoxy-6-quinolinecarboxamide in respective filtrates according to the following equation. Concentration (mg/mL)=(Concentration in the standard solution, mg/mL)×[(Peak area in each filtrate)×2/(Peak area in the standard solution)] As is evident from the results, there was no significant difference in the solubility at pH 3 between the polymorphs (A) and (B).

[5] = Hygroscopicity test by a desiccator method; conditions: for water content: Karl Fischer method
Experimental: (Hygroscopicity Test by a Desiccator Method) The hygroscopicities of the crystals obtained in Examples 1d and 2d were evaluated by a desiccator method. […] Weighing bottles (in opened caps) were used for containers, and MIR-552 (Sanyo) was used for a storage apparatus. [table] The powder X-ray diffraction analysis was carried out under the following conditions. The water content was measured (by the Karl Fischer method) by using the following apparatus and reagents.

[6] = condition C: −20° C., brown screw vial, closed, 1 month
[7] = condition D: 25° C., 1000lx, shading with aluminum foil, quartz tube, closed, 1 month
[8] = condition E: 25° C., 1000lx, quartz tube, closed, 1 month
[9] = condition F: 40° C., 75% RH, brown screw vial, open, 1 month
[10] = condition G: 60° C., brown screw vial, closed, 1 month
[11] = condition A: 25° C., 75% relative humidity, stored 1 week
[12] = condition B: 25° C., 93% relative humidity, stored 1 week
[13] = desiccator method, 25° C., 75% or 93% relative humidity, 1 week

Question: For `COc1cc2nccc(Oc3ccc(NC(=O)NC4CC4)c(Cl)c3)c2cc1C(N)=O` [Example 1d, 4-(3-chloro-4-(cyclopropylaminocarbonyl)aminophenoxy)-7-methoxy-6-quinolinecarboxamide], which hygroscopicity ([1]; microbalance method, 5-95% relative humidity) is on record?
Answer: no perceivable hygroscopisity

Question: What about the weight change ([1]; within the range of 5-95% of relative humidity, listed as polymorph (A)) of the same molecule?
Answer: 1%

Question: And the “crystal form after suspension” value ([2]; 300 mg in DMSO (1.7 mL) and 33% (v/v) acetone-water (0.17, 0.34, 0.51 or 0.85 mL))?
Answer: crystal transition to the polymorph (B) occurred in every case

Question: What about the “dissolution in DMSO” value ([2]; 300 mg in DMSO (1.7 mL), without 33% acetone-water) of the same molecule?
Answer: most of the polymorph (A) dissolved

Question: And the appearance [3, 6]?
Answer: light brown

Question: And the impurity [3, 6]?
Answer: 2.66%

Question: And the remaining percent ([3]; condition C: −20° C., brown screw vial, closed, 1 month, condition C is the standard)?
Answer: (100) %

Question: And the water content [3, 6]?
Answer: 1.0 wt %

Question: And the appearance [3, 7]?
Answer: light brown

Question: And the impurity [3, 7]?
Answer: 2.67%

Question: What about the remaining percent ([3]; condition D: 25° C., 1000lx, shading with aluminum foil, quartz tube, closed, 1 month, vs condition C standard) of the same molecule?
Answer: 103.3%

Question: And the water content [3, 7]?
Answer: 0.7 wt %

Question: And the appearance [3, 8]?
Answer: light brown

Question: And the impurity [3, 8]?
Answer: 2.68%

Question: And the remaining percent ([3]; condition E: 25° C., 1000lx, quartz tube, closed, 1 month, vs condition C standard)?
Answer: 104.3%

Question: What about the water content [3, 8] of the same molecule?
Answer: 0.8 wt %

Question: What about the appearance [3, 9] of the same molecule?
Answer: light brown

Question: And the impurity [3, 9]?
Answer: 2.65%

Question: What about the remaining percent ([3]; condition F: 40° C., 75% RH, brown screw vial, open, 1 month, vs condition C standard) of the same molecule?
Answer: 102.3%

Question: And the water content [3, 9]?
Answer: 1.2 wt %

Question: What about the appearance [3, 10] of the same molecule?
Answer: light brown

Question: And the impurity [3, 10]?
Answer: 2.65%

Question: What about the remaining percent ([3]; condition G: 60° C., brown screw vial, closed, 1 month, vs condition C standard) of the same molecule?
Answer: 104.4%

Question: What about the water content [3, 10] of the same molecule?
Answer: 0.5 wt %

Question: What about the appearance ([3]; prior to storage) of the same molecule?
Answer: light brown

Question: What about the impurity ([3]; prior to storage) of the same molecule?
Answer: 2.71%

Question: What about the water content ([3]; prior to storage) of the same molecule?
Answer: 1.0 wt %

Question: What about the “change on storage (solid stability)” value ([3]; stored for 1 month, any storage conditions) of the same molecule?
Answer: no change was observed

Question: What about the solubility at 3 h ([4]; Britton Robinson buffer, 25 °C, pH 3, aqueous buffer, thermodynamic from solid, pH 3 Britton Robinson buffer, 25-26° C., shaking time 3 hours, read-out: solubility (concentration in filtrate)) of the same molecule?
Answer: 77 µg/mL (≈ 180 µM)

Question: What about the solubility at 5 h ([4]; Britton Robinson buffer, 25 °C, pH 3, aqueous buffer, thermodynamic from solid, pH 3 Britton Robinson buffer, 25-26° C., shaking time 5 hours, read-out: solubility (concentration in filtrate)) of the same molecule?
Answer: 71 µg/mL (≈ 166 µM)

Question: What about the “pH of the filtrate” value ([4]; shaking time 3 hours) of the same molecule?
Answer: 3.123

Question: What about the “pH of the filtrate” value ([4]; shaking time 5 hours) of the same molecule?
Answer: 3.107

Question: What about the appearance [5, 11] of the same molecule?
Answer: light brown

Question: What about the water content [5, 11] of the same molecule?
Answer: 1.0 wt %

Question: And the appearance [5, 12]?
Answer: light brown

Question: What about the water content [5, 12] of the same molecule?
Answer: 1.2 wt %

Question: What about the crystal transition [5, 13] of the same molecule?
Answer: no perceivable crystal transition

Question: What about the hygroscopicity [5, 13] of the same molecule?
Answer: no perceivable hygroscopicitiy

Question: What about the appearance ([5]; prior to storage) of the same molecule?
Answer: light brown

Question: What about the water content ([5]; prior to storage) of the same molecule?
Answer: 1.0 wt %
